# The source made the active and inactive calls. The rule behind the calls is not given here. Positions of bridges follow the written chain, without caps; N, C: chain ends. Non-standard residues stand in square brackets, D forms with d. Residues, ends and D or L forms follow the SMILES beside them. *: point of attachment. Heptanoyl(6-Me) = CC(C)CCCCC(=O)*; dDab = NCC[C@@H](N)C(=O)O; Dab = NCC[C@H](N)C(=O)O
# Legend:
# [1] = test system: Pseudomonas aeruginosa; test: Antibacterial activity against Pseudomonas aeruginosa KCTC 1637 strain assessed as bacterial growth inhibition measured at 18 to 24 hrs by microdilution assay; assay type: functional; conditions: time 18-24 hrs
# [2] = test system: Escherichia coli; test: Antibacterial activity against Escherichia coli KCTC 1682 strain assessed as bacterial growth inhibition measured at 18 to 24 hrs by microdilution assay; assay type: functional; conditions: time 18-24 hrs
# [3] = test system: Staphylococcus epidermidis; test: Antibacterial activity against Staphylococcus epidermidis KCTC 1917 strain assessed as bacterial growth inhibition measured at 18 to 24 hrs by microdilution assay; assay type: functional; conditions: time 18-24 hrs
# [4] = test system: Staphylococcus aureus; test: Antibacterial activity against Staphylococcus aureus KCTC 1621 strain assessed as bacterial growth inhibition measured at 18 to 24 hrs by microdilution assay; assay type: functional; conditions: time 18-24 hrs
# [5] = test system: Erythrocyte; test: Hemolytic activity in sheep RBC assessed as minimal hemolytic concentration causing 10% hemolysis incubated for 1 hr by ELISA; assay type: toxicity, cell-based, Ovis aries
# [6] = test system: Pseudomonas aeruginosa; test: Antibiofilm activity against multidrug-resistant Pseudomonas aeruginosa assessed as biofilm eradication; assay type: functional
# [7] = test system: Pseudomonas aeruginosa; test: Antibiofilm activity against multidrug-resistant Pseudomonas aeruginosa assessed as inhibition of biofilm formation; assay type: functional
# [8] = test system: Pseudomonas aeruginosa; test: Bacteriostatic activity against multidrug-resistant Pseudomonas aeruginosa CCARM 2095 measured after 24 hrs by time-kill kinetics assay; assay type: functional, organism-based
# [9] = test system: Pseudomonas aeruginosa; test: Bactericidal activity against multidrug-resistant Pseudomonas aeruginosa CCARM 2095 measured after 24 hrs by time-kill kinetics assay; assay type: functional, organism-based
# [10] = test system: Enterococcus faecium; test: Antibacterial activity against vancomycin-resistant Enterococcus faecium ATCC 51559 strain assessed as bacterial growth inhibition measured at 18 to 24 hrs by microdilution assay; assay type: functional; conditions: time 18-24 hrs
# [11] = test system: Staphylococcus aureus; test: Antibacterial activity against methicillin-resistant Staphylococcus aureus CCARM 3090 strain assessed as bacterial growth inhibition measured at 18 to 24 hrs by microdilution assay; assay type: functional; conditions: time 18-24 hrs
# [12] = test system: Staphylococcus aureus; test: Antibacterial activity against methicillin-resistant Staphylococcus aureus CCARM 3089 strain assessed as bacterial growth inhibition by checkerboard assay; assay type: functional
# [13] = test system: Pseudomonas aeruginosa; test: Synergistic antibacterial activity against multidrug-resistant Pseudomonas aeruginosa CCARM 2095 strain assessed as bacterial growth inhibition by checkerboard assay; assay type: functional
# [14] = test system: Staphylococcus aureus; test: Antibacterial activity against methicillin-resistant Staphylococcus aureus CCARM 3095 strain assessed as bacterial growth inhibition measured at 18 to 24 hrs by microdilution assay; assay type: functional; conditions: time 18-24 hrs
# [15] = test system: Pseudomonas aeruginosa; test: Additive antibacterial activity against multidrug-resistant Pseudomonas aeruginosa CCARM 2095 strain assessed as bacterial growth inhibition by checkerboard assay; assay type: functional
# [16] = test system: Pseudomonas aeruginosa; test: Antibacterial activity against multidrug-resistant Pseudomonas aeruginosa CCARM 2109 strain assessed as bacterial growth inhibition measured at 18 to 24 hrs by microdilution assay; assay type: functional; conditions: time 18-24 hrs
# [17] = test system: Staphylococcus aureus; test: Antibacterial activity against methicillin-resistant Staphylococcus aureus CCARM 3089 strain assessed as bacterial growth inhibition measured at 18 to 24 hrs by microdilution assay; assay type: functional; conditions: time 18-24 hrs
# [18] = test system: Pseudomonas aeruginosa; test: Antibacterial activity against multidrug-resistant Pseudomonas aeruginosa CCARM 2095 strain assessed as bacterial growth inhibition measured at 18 to 24 hrs by microdilution assay; assay type: functional; conditions: time 18-24 hrs
# [19] = test system: Lipopolysaccharide (LPS); test: Binding affinity to Escherichia coli O111:B4 lipopolysaccharide assessed as suppression of FTIC labeled LPS binding to mouse RAW264.7 cells at 20 ug/ml pretreated with LPS followed by compound addition by flow cytometer assay (reference value: 67.4%); assay type: cell-based; conditions: dose 20.0 µg/ml
# [20] = test system: Lipopolysaccharide (LPS); test: Binding affinity to Escherichia coli O111:B4 lipopolysaccharide assessed as suppression of FTIC labeled LPS binding to mouse RAW264.7 cells at 20 ug/ml pretreated LPS with cells for 1 hr followed by compound addition measured after 1 hr by flow cytometer assay (reference value: 48.12%); assay type: cell-based; conditions: dose 20.0 µg/ml
Molecule,MIC [1] [µM],MIC [2] [µM],MIC [3] [µM],MIC [4] [µM],MHC [5] [µM],also measured
N=C(N)NCCCN(CCCNC(=N)N)c1nc(NCc2ccccc2)nc(N2CC(Cc3ccccc3)N(c3nc(NCc4ccccc4)nc(N(CCCNC(=N)N)CCCNC(=N)N)n3)CC2Cc2ccccc2)n1 (stereo not drawn),8.2,16.5,4.1,4.4,226.4,–
N=C(N)NCCCCNc1nc(NCCCCN)nc(N2CCN(c3nc(NCCCCN)nc(NCCCCN)n3)CC2Cc2ccccc2)n1 (stereo not drawn),11.1,22.2,5.6,11.1,> 355.8,–
N=C(N)NCCCNc1nc(NCCCNC(=N)N)nc(N2CC(Cc3ccccc3)N(c3nc(NCCCNC(=N)N)nc(NCCCNC(=N)N)n3)CC2Cc2ccccc2)n1 (stereo not drawn),18.1,9.1,9.1,4.5,> 290.3,MBEC50 [6]: 18.1 µM; MBEC90 [6]: 145.2 µM; MBEC50 [7]: 18.1 µM; MBEC90 [7]: 145.2 µM; MBIC [7]: 36.3 µM; MBIC50 [7]: 4.5 µM
Cc1onc(-c2ccccc2)c1C(=O)N[C@@H]1C(=O)N2[C@@H]1SC(C)(C)[C@@H]2C(=O)O [OXACILLIN],–,–,–,–,–,Activity [8]: inactive; Activity [9]: inactive; MIC [10]: 2180 µM; MIC [11]: > 5100 µM; MIC [12]: 1020 mg/L; MIC [13]: 1020 mg/L; MIC [14]: > 5100 µM; MIC [15]: 1020 mg/L; MIC [16]: 5100 µM; MIC [17]: 2550 µM; MIC [18]: 5100 µM
NCCCN(CCCN)c1nc(NCc2ccccc2)nc(N2CC(Cc3ccccc3)N(c3nc(NCc4ccc5ccccc5c4)nc(N(CCCN)CCCN)n3)CC2Cc2ccccc2)n1 (stereo not drawn),18.7,9.4,4.7,4.7,189.5,–
COLISTIN,–,–,–,–,–,MIC [10]: 13.8 µM; MIC [11]: 27.7 µM; MIC [12]: 512 mg/L; MIC [14]: 13.8 µM; MIC [16]: 27.7 µM; MIC [17]: 27.7 µM; MIC [18]: 55.4 µM
N=C(N)NCCCN(CCCNC(=N)N)c1nc(NCc2ccccc2)nc(N2CC(Cc3ccccc3)N(c3nc(NCc4ccc5ccccc5c4)nc(N(CCCNC(=N)N)CCCNC(=N)N)n3)CC2Cc2ccccc2)n1 (stereo not drawn),7.8,31.4,3.9,15.7,56.8,–
N=C(N)NCCN(CCNC(=N)N)c1nc(NCc2ccccc2)nc(N2CC(Cc3ccccc3)N(c3nc(NCc4ccccc4)nc(N(CCNC(=N)N)CCNC(=N)N)n3)CC2Cc2ccccc2)n1 (stereo not drawn),8.7,8.7,4.4,4.4,124.5,–
NCCCCNc1nc(NCCCCN)nc(N2CCN(c3nc(NCCCCN)nc(NCCCCN)n3)C(Cc3ccccc3)C2)n1 (stereo not drawn),47,47,23.5,23.5,> 376.3,–
NCCCNc1nc(NCCCN)nc(N2CC(Cc3ccccc3)N(c3nc(NCCCN)nc(NCCCN)n3)CC2Cc2ccccc2)n1 (stereo not drawn),22.4,11.2,11.2,11.2,> 358.4,–
N=C(N)NCCCNc1nc(NCCCN)nc(N2CCN(c3nc(NCCCN)nc(NCCCN)n3)CC2Cc2ccccc2)n1 (stereo not drawn),24,24,12,12,> 384,–
NCCN(CCN)c1nc(NCc2ccccc2)nc(N2CCN(c3nc(NCc4ccc5ccccc5c4)nc(N(CCN)CCN)n3)C(Cc3ccccc3)C2)n1 (stereo not drawn),20,40,5,5,> 320,–
N=C(N)NCCCCNc1nc(NCCCCNC(=N)N)nc(N2CC(Cc3ccccc3)N(c3nc(NCCCCNC(=N)N)nc(NCCCCNC(=N)N)n3)CC2Cc2ccccc2)n1 (stereo not drawn),8.5,8.5,8.5,8.5,> 273.2,MBEC50 [6]: 17.1 µM; MBEC90 [6]: 68.3 µM; MBEC50 [7]: 17.1 µM; MBEC90 [7]: 68.3 µM; MBIC [7]: 34.1 µM; MBIC50 [7]: 8.5 µM
NCCNc1nc(NCCN)nc(N2CCN(c3nc(NCCN)nc(NCCN)n3)C(Cc3ccccc3)C2)n1 (stereo not drawn),28.2,56.4,56.4,56.4,> 451.1,–
N=C(N)NCCNc1nc(NCCNC(=N)N)nc(N2CCN(c3nc(NCCNC(=N)N)nc(NCCNC(=N)N)n3)C(Cc3ccccc3)C2)n1 (stereo not drawn),21.8,21.8,21.8,21.8,> 348.2,–
N=C(N)NCCCCNc1nc(NCCCCNC(=N)N)nc(N2CCN(c3nc(NCCCCNC(=N)N)nc(NCCCCNC(=N)N)n3)C(Cc3ccccc3)C2)n1 (stereo not drawn),9.4,18.9,4.7,9.4,> 302.1,–
O=C(O)c1cn(C2CC2)c2cc(N3CCNCC3)c(F)cc2c1=O [CIPROFLOXACIN],–,–,–,–,–,Activity [8]: inactive; Activity [9]: inactive; MIC [10]: 1550 µM; MIC [11]: > 6180 µM; MIC [12]: 512 mg/L; MIC [13]: 1020 mg/L; MIC [14]: > 6180 µM; MIC [15]: 1020 mg/L; MIC [16]: > 6180 µM; MIC [17]: > 6180 µM; MIC [18]: 3090 µM
CC(C)CCCCC(=O)N[C@@H](CCN)C(=O)N[C@H](C(=O)N[C@@H](CCN)C(=O)N[C@H]1CCNC(=O)[C@H]([C@@H](C)O)NC(=O)[C@H](CCN)NC(=O)[C@H](CCN)NC(=O)[C@H](CC(C)C)NC(=O)[C@@H](Cc2ccccc2)NC(=O)[C@@H](CCN)NC1=O)[C@@H](C)O ({Heptanoyl(6-Me)}-[Dab]T[Dab][Dab][dDab][dF]L[Dab][Dab]T; lactam 4-C),–,–,–,–,–,Flu intensity [19]: 12.3%; Flu intensity [20]: 45.3%
N=C(N)NCCN(CCNC(=N)N)c1nc(NCc2ccccc2)nc(N2CCN(c3nc(NCc4ccc5ccccc5c4)nc(N(CCNC(=N)N)CCNC(=N)N)n3)C(Cc3ccccc3)C2)n1 (stereo not drawn),16.6,16.6,4.1,4.1,37.3,–
N=C(N)NCCCNc1nc(NCCCNC(=N)N)nc(N2CCN(c3nc(NCCCNC(=N)N)nc(NCCCNC(=N)N)n3)C(Cc3ccccc3)C2)n1 (stereo not drawn),20.2,20.2,20.2,20.2,> 322.6,–
NCCCNc1nc(NCCCN)nc(N2CCN(c3nc(NCCCN)nc(NCCCN)n3)C(Cc3ccccc3)C2)n1 (stereo not drawn),51.2,51.2,25.6,25.6,> 409.6,–
